Assay results taken from patent US6420387B1, “Farnesyl protein transferase inhibiting (imidazol-5-yl) methyl-2-quinolinone derivatives” (Janssen Pharmaceutica N.V., priority 1995, dated 2002).
Structures can show the parent of a compound that is named as a salt.

Columns and labels:
[1] = molecular target: T1, Human farnesyl protein transferase (Homo sapiens, UniProt P49354+P49356); assay: In vitro assay for inhibition of farnesyl protein transferase (scintillation proximity assay); type: biochemical; settings: concentration producing 50% inhibition of enzyme activity; [3H]-farnesylpyrophosphate and biotinylated lamin B peptide substrates, 60 min at 37° C.
T1 construct: grown as monolayer cell cultures were used as a source of human enzyme; endogenous in cells; host or cells: KHOS (Kirsten virus transformed human osteosarcoma) cells, grown as solid tumors in nude mice or as monolayer cultures; 30-50% ammonium sulfate fraction, then Q Fast Flow Sepharose
Protocol: Human farnesyl protein transferase was prepared essentially as described (Y. Reiss et al., Methods: A Companion to Methods in Enzymology vol 1, 241-245, 1990). Kirsten virus transformed human osteosarcoma (KHOS) cells (American Type Culture Collection, Rockville, Md., USA) grown as solid tumors in nude mice or grown as monolayer cell cultures were used as a source of human enzyme. Briefly, cells or tumors were homogenized in buffer containing 50 mM Tris, 1 mM EDTA, 1 mM EGTA and 0.2 mM phenylmethylsulfonylfluoride (pH 7.5). The homogenates were centrifuged 28,000×g for 60 min and the supernatants collected. A 30-50% ammonium sulfate fraction was prepared, and the resulting precipitate was resuspended in a small (10 to 20 ml) volume of dialysis buffer containing 20 mM Tris 1 mM dithiothreitol and 20 μM ZnCl2. The ammonium sulfate fraction was dialyzed overnight against two changes of the same buffer. The dialyzed material was applied to a 10×1 cm Q Fast Flow Sepharose (Pharmacia LKB Biotechnology Inc., Piscataway, N.J., USA) which had been preequilibrated with 100 ml of dialysis buffer supplemented with 0.05 M NaCl. The column was washed with an additional 50 ml of dialysis buffer plus 0.05 M NaCl followed by a gradient from 0.05 M to 0.25 M NaCl prepared in dialysis buffer. The enzyme activity was eluted with a linear gradient of 0.25 to 1.0 M NaCl prepared in the dialysis buffer. Fractions containing 4 to 5 ml volumes of column eluate were collected and analyzed for farnesyl protein transferase activity. Fractions with enzyme activity were pooled and supplemented with 100 μM ZnCl2. Enzyme samples were stored frozen at −70° C.
The activity of farnesyl protein transferase was measured using the Farnesyl Transferase [^3H] Scintillation Proximity Assay (Amersham International plc., England) under the conditions specified by the manufacturer. To assay for inhibitors of the enzyme, 0.20 μCi of the [^3H]-famesylpyrophosphate substrate and the biotinylated lamin B peptide substrate (biotin-YRASNRSCAIM) were mixed with test compounds in a reaction buffer consisting of 50 mM HEPES, 30 mM MgCl2, 20 mM KCl, 5 mM dithiothreitol, 0.01% Triton X-100. Test compounds were delivered in a 10 μl volume of dimethylsulfoxide (DMSO) to achieve concentrations of 1 and 10 μg/ml in a final volume of 100 μl. The reaction mixture was warmed to 37° C. The enzyme reaction was started by adding 20 μl of diluted human farnesyl protein transferase. Sufficient enzyme preparation was added to produce between 4000 to 15000 cpm of reaction product during the 60 min of reaction incubation at 37° C. Reactions were terminated by the addition of STOP/scintillation proximity bead reagent (Amersham). The reaction product [^3H]-farnesyl-(Cys)-biotin lamin B peptide was captured on the streptavidin linked scintillation proximity bead. The amount of [^3H]-farnesyl-(Cys)-biotin lamin B peptide synthesized in the presence or absence of test compounds was quantified as cpm by counting on a Wallac Model 1480 Microbeta Liquid Scintillation Counter. The cpm of product was considered to be farnesyl protein transferase activity. The protein farnesyl transferase activity observed in the presence of test compound was normalized to farnesyl transferase activity in the presence of 10% DMSO and expressed as per cent inhibition. […] The effects of test compounds in these studies were calculated as IC50 (concentration of test compound producing 50% inhibition of enzyme activity) using the LGICV50 computer program written by the Science Information Division of R. W. Johnson Pharmaceutical Research Institute (Spring House, Pa., USA) on a VAX computer.

[2] = system: NIH 3T3 cells transformed by the T24 activated human H-ras gene; assay: Ras-transformed cell phenotype reversion assay; type: cell-based, mouse; settings: cell counts after 72 hours proliferation, corrected for initial input of 200,000 cells
Description: Insertion of activated oncogenes such as the mutant ras gene into mouse NIH 3T3 cells converts the cells to a transformed phenotype. The cells become tumorigenic, display anchorage independent growth in semi-solid medium and lose contact inhibition. Loss of contact inhibition produces cell cultures which no longer form uniform monolayers. Rather, the cells pile up into multicellular nodules and grow to very high saturation densities in plastic tissue culture dishes. Agents such as protein farnesyl transferase inhibitors which revert the ras transformed phenotype restore the uniform monolayer growth pattern to cells in culture. This reversion is easily monitored by counting the number of cells in tissue culture plates. Transformed cells will achieve higher cell numbers than cells which have reverted to an untransformed phenotype. Compounds which revert the transformed phenotype should produce antitumor effects in tumors bearing ras gene mutations.
Compounds are screened in tissue culture in NIH 3T3 cells transformed by the T24 activated human H-ras gene. Cells are seeded at an initial density of 200,000 cells per well (9.6 cm^2 surface area) in six-well cluster tissue culture plates. Test compounds are immediately added to 3.0 ml cell growth medium in a 3.0 μl volume of DMSO, with a final concentration of DMSO in the cell growth medium of 0.1%. The test compounds are run at concentrations of 5, 10, 50, 100, and 500 nM along with a DMSO treated vehicle control. (In case a high activity is observed at 5 nM, the test compound is tested at even lower concentrations.) The cells are allowed to proliferate for 72 hours. Then the cells are detached in 1.0 ml trypsin-EDTA cell dissociation medium and counted on a Coulter particle counter.
Cell numbers expressed as cells per well are measured using a Coulter Particle Counter.
All cell counts were corrected for the initial cell input density by subtracting 200,000.
Control cell counts=[cell counts from cells incubated with DMSO vehicle −200,000].
Test compound cell counts=[cell counts from cells incubated with test compound −200,000]. [formula]
IC50 (i.e. the test compound concentration required to inhibit enzyme activity by 50%) is calculated if sufficient data are available, summarized in table 11.

| IC50 [1] | SMILES | IC50 ([2]; NIH3T3) | IC50 [2] |
| --- | --- | --- | --- |
| 24 nM | COC(c1ccc(Cl)cc1)(c1ccc2c(c1)c(-c1cccc(Cl)c1)cc(=O)n2C)c1cncn1C (racemic) [Compound 4, (±)-4-(3-chlorophenyl)-6-[(4-chlorophenyl)methoxy(1-methyl-1H-imidazol-5-yl)methyl]-1-methyl-2(1H)-quinolinone ethanedioate(1:1).dihydrate] | – | – |
| 25 nM | Cn1cncc1C(c1ccc(Cl)cc1)c1ccc2c(c1)c(-c1cccc(Cl)c1)cc(=O)n2C (racemic) [Compound 5, (±)-4-(3-chlorophenyl)-6-[(4-chlorophenyl)(1-methyl-1H-imidazol-5-yl)methyl]-1-methyl-2(1H)-quinolinone ethanedioate(1:1).mono-hydrate] | 32 nM | – |
| 2.8 nM | COc1cccc(-c2cc(=O)n(C)c3ccc(C(O)(c4ccc(Cl)cc4)c4cncn4C)cc23)c1 (racemic) [Compound 36, (±)-6-[(4-chlorophenyl)hydroxy(1-methyl-1H-imidazol-5-yl)methyl]-4-(3-methoxyphenyl)-1-methyl-2(1H)-quinolinone] | – | – |
| 3.4 nM | Cn1cncc1C(CCl)(c1ccc(Cl)cc1)c1ccc2c(c1)c(-c1cccc(Cl)c1)cc(=O)n2C (racemic) [Compound 69, (±)-6-[2-chloro-1-(4-chlorophenyl)-1-(1-methyl-1H-imidazol-5-yl)ethyl]-4-(3-chlorophenyl)-1-methyl-2(1H)-quinolinone ethanedioate (1:1)] | 14 nM | – |
| – | COCC(=O)NC(c1ccc(Cl)cc1)(c1ccc2c(c1)c(-c1cccc(Cl)c1)cc(=O)n2C)c1cncn1C (racemic) [Compound 89, (±)-N-[(4-chlorophenyl)[4-(3-chlorophenyl)-1,2-dihydro-1-methyl-2-oxo-6-quinolinyl](1-methyl-1H-imidazol-5-yl)methyl]-2-methoxyacetamide monohydrochloride] | 24 nM | – |
| – | Cn1cncc1C(c1ccc(Cl)cc1)c1ccc2c(c1)c(-c1cccc(Cl)c1)cc(=S)n2C (racemic) [Compound 128, (±)-4-(3-chlorophenyl)-6-[(4-chlorophenyl)(1-methyl-1H-imidazol-5-yl)methyl]-1-methyl-2(1H)-quinolinethione] | 177 nM | – |
| – | Cn1cncc1C(N)(c1ccc(Cl)cc1)c1ccc2c(c1)c(-c1cccc(Cl)c1)c(Cl)c(=O)n2C (racemic) [Compound 143, (±)-6-[amino(4-chlorophenyl)(1-methyl-1H-imidazol-5-yl)methyl]-3-chloro-4-(3-chlorophenyl)-1-methyl-2(1H)-quinolinone] | 82 nM | – |
| 6 nM | Cn1cncc1C(O)(c1ccc(Cl)cc1)c1ccc2c(c1)c(-c1ccccc1)cc(=O)n2C (centres unmarked) [Compound 1] | – | – |
| 1.6 nM | Cn1cncc1C(c1ccc(Cl)cc1)c1ccc2[nH]c(=O)cc(-c3cccc(Cl)c3)c2c1 (centres unmarked) [Compound 7] | – | – |
| 18.4 nM | Cn1cncc1C(OCCCO)(c1ccc(Cl)cc1)c1ccc2c(c1)c(-c1cccc(Cl)c1)cc(=O)n2C (centres unmarked) [Compound 15] | – | – |
| – | Cn1cncc1C(O)(c1ccc(Cl)cc1)c1ccc2c(c1)c(-c1cccc(Cl)c1)cc(=O)n2C (centres unmarked) [Compound 23, (A)-4-(3-chlorophenyl)-6-[(4-chlorophenyl)-hydroxy(1-methyl-1H-imidazol-5-yl)methyl]-1-methyl-2(1H)-quinolinone ethanedioate (1:1)] | – | 395 nM |
| 2.7 nM | Cn1cncc1C(O)(c1ccc(Cl)cc1)c1ccc2c(c1)c(-c1cccc(Cl)c1)cc(=O)n2C (centres unmarked) [Compound 24, (B)-4-(3-chlorophenyl)-6-[(4-chlorophenyl)hydroxy(1-methyl-1H-imidazol-5-yl)methyl]-1-methyl-2(1H)-quinolinone ethanedioate(1:1)] | 16 nM | – |
| 57 nM | CCOCCCOC(c1ccc(Cl)cc1)(c1ccc2c(c1)c(-c1cccc(Cl)c1)cc(=O)n2C)c1cncn1C (centres unmarked) [Compound 29] | 345 nM | – |
| 10.1 nM | CCCOc1cccc(-c2cc(=O)n(C)c3ccc(C(O)(c4ccc(Cl)cc4)c4cncn4C)cc23)c1 (centres unmarked) [Compound 37] | – | – |
| 910 nM | Cn1c(=O)cc(-c2ccccc2)c2cc(C(c3ccc(Cl)cc3)c3c[nH]cn3)ccc21 (centres unmarked) [Compound 42] | – | – |
| 1000 nM | Cn1c(=O)cc(-c2cccc(Cl)c2)c2cc(C(c3ccc(Cl)cc3)c3c[nH]cn3)ccc21 (centres unmarked) [Compound 45] | – | – |
| 5.7 nM | CCCOc1cccc(-c2cc(=O)n(C)c3ccc(C(c4ccc(Cl)cc4)c4cncn4C)cc23)c1 (centres unmarked) [Compound 52] | – | – |
| 2.8 nM | CCOC(=O)CC(c1ccc(Cl)cc1)(c1ccc2c(c1)c(-c1cccc(Cl)c1)cc(=O)n2C)c1cncn1C (centres unmarked) [Compound 58] | 96 nM | – |
| 0.62 nM | Cn1cncc1C(c1ccc(Cl)cc1)(c1ccc2c(c1)c(-c1cccc(Cl)c1)cc(=O)n2C)n1ccnc1 (centres unmarked) [Compound 60] | 70 nM | – |
| 1 nM | Cn1cncc1C(O)(c1ccc(Cl)cc1)c1ccc2c(c1)c(-c1cccc(OCCO)c1)cc(=O)n2C (centres unmarked) [Compound 63] | 53 nM | – |
| 11.6 nM | Cn1cncc1C(O)(c1ccc(Cl)cc1)c1ccc2c(c1)c(-c1cccc(O)c1)cc(=O)n2C (centres unmarked) [Compound 64] | – | – |
| 4 nM | CN(C)C(c1ccc(Cl)cc1)(c1ccc2c(c1)c(-c1cccc(Cl)c1)cc(=O)n2C)c1cncn1C (centres unmarked) [Compound 66] | 19 nM | – |
| 5.9 nM | COCCNC(c1ccc(Cl)cc1)(c1ccc2c(c1)c(-c1cccc(Cl)c1)cc(=O)n2C)c1cncn1C (centres unmarked) [Compound 67] | 51 nM | – |
| 26 nM | Cn1cncc1C(CO)(c1ccc(Cl)cc1)c1ccc2c(c1)c(-c1cccc(Cl)c1)cc(=O)n2C (centres unmarked) [Compound 71] | 288 nM | – |
| 2.9 nM | CCc1cccc(-c2cc(=O)n(C)c3ccc(C(O)(c4ccc(Cl)cc4)c4cncn4C)cc23)c1 (centres unmarked) [Compound 97] | – | – |
| 1.7 nM | CCCc1cccc(-c2cc(=O)n(C)c3ccc(C(O)(c4ccc(Cl)cc4)c4cncn4C)cc23)c1 (centres unmarked) [Compound 99] | – | – |

| SMILES | IC50 [1] | IC50 ([2]; NIH3T3) | IC50 [2] |
| --- | --- | --- | --- |
| CNC(c1ccc(Cl)cc1)(c1ccc2c(c1)c(-c1cccc(Cl)c1)cc(=O)n2C)c1cncn1C (racemic) [Compound 61, (±)-4-(3-chlorophenyl)-6-[(4-chlorophenyl)(methylamino)(1-methyl-1H-imidazol-5-yl)methyl]-1-methyl-2(1H)-quinolinone monohydrate] | 1.1 nM | 310 nM | – |
